The data set is described as follows: In vitro metabolic stability in pooled mouse liver S9 fraction. It is filed as in vitro ADME. To be noted: male, ICR; for remaining at 1 h, 3 µM / half-life at 3 µM: pH 7.4, MLS9 1 mg/mL, 3 µM compound; for remaining at 1 h, 3 µM: cofactors NADPH, UDPGA, PAPS, GSH, 37 °C, read-out: % remaining after 60 min; for half-life at 3 µM: with cofactors, one-phase decay fit, read-out: in vitro t½ (estimated); for microsomal CLint at 3 µM: pH 7.4, MLS9, CLint,u = k/(fu,S9 × [S9]), read-out: CLint,u (unbound intrinsic clearance). How it is done: Metabolic stability was assessed using pooled HLS9 and MLS9 fractions. The S9 fractions (20 mg/mL) were diluted to 1 mg/mL with 0.1 M potassium phosphate buffer (pH 7.4). Stock solutions of KB-1517 and KB-1518 (10 mM in DMSO) were diluted in 50% aqueous acetonitrile to prepare working solutions (120 µM). A Tris mix buffer containing 1 M Tris-HCl (pH 7.4), 10 mM MgCl2, and 125 µg/mL alamethicin was prepared. A combined cofactor solution was prepared in 0.1 M potassium phosphate buffer (pH 7.4): 10 mM NADPH, 5 mM UDPGA, 1 mM PAPS, and 25 mM GSH.
The incubation mixture (final volume 200 µL) contained: 125 µL of deionized water, 40 µL of Tris mix buffer, 10 µL of 20 mg protein/mL S9 fraction (final concentration 1 mg protein/mL), and 5 µL of the test compound working solution (final concentration 3 µM). The final concentrations of DMSO and acetonitrile were 0.03% and 1%, respectively. The mixture was pre-incubated at 37 °C for 5 min in a shaking water bath. The reaction was initiated by adding 20 µL of the combined cofactor solution (final concentrations: 1 mM NADPH, 0.5 mM UDPGA, 0.1 mM PAPS, 2.5 mM GSH). Control incubations were performed without the cofactor mixture (replaced with buffer) and at 0 min (quenched immediately after adding cofactors). Incubations were carried out at 37 °C for 0, 15, 30, and 60 min (for stability) or 60 min (for metabolite ID). Reactions were terminated by adding 200 µL of ice-cold acetonitrile containing IS (diclofenac).
Terminated samples were sonicated (5 min), vortexed (1500 rpm, 5 min), and centrifuged (3000 rpm, 20 min, 4 °C). An aliquot (150 µL) of the supernatant was transferred to a 96-well plate for LC-MS/MS analysis as described in Section 2.6.2.
Noncompartmental analysis (NCA) was performed using PKSolver to determine pharmacokinetic parameters from the plasma concentration-time data. Parameters included: maximum plasma concentration (Cmax), time to reach Cmax (tmax), terminal elimination half-life (t1/2), area under the plasma concentration-time curve from time zero to the last measurable concentration (AUClast), area under the plasma concentration-time curve extrapolated to infinity (AUCinf), total body clearance (CL), and volume of distribution at steady state (Vss). Oral bioavailability (F) was calculated as: F(%) = (AUCinf,PO/AUCinf,IV)× (DoseIV/DosePO)×100. Due to the anomalous profile of KB-1517, AUClast was used for its F calculation, and some parameters (t½, CL, Vss for IV; AUCinf for PO) could not be reliably determined (ND). The metabolic rate constant (k) was determined by fitting the in vitro metabolic stability data to a one-phase decay equation via nonlinear regression using GraphPad Prism (Version 10, GraphPad Software, Boston, MA, USA). The in vitro t1/2 was calculated from the equation t1/2 = ln(2)/k. Subsequently, the unbound intrinsic clearance (CLint,u) was calculated as follows: CLint,u = k/(fu,S9 × [S9]), where fu,S9 is the fraction unbound in the S9 incubation and [S9] is the S9 protein concentration.
The metabolic stability of KB-1517 and KB-1518 was evaluated by incubating the compounds (3 µM) with HLS9 and MLS9 fractions (1 mg/mL) in the presence of a comprehensive set of phase I and phase II cofactors (NADPH, UDPGA, PAPS, and GSH) for up to 60 min.

With `CN(C)CCn1c(=O)c2nc(-c3ccc(C(F)(F)F)cc3)oc2c2ccccc21` [KB-1517, 5-(2-(dimethylamino)ethyl)-2-(4-(trifluoromethyl)phenyl)oxazolo[4,5-c]quinolin-4(5H)-one], the fraction remaining at 1 h, 3 µM was found to be 67.2 ± 1%; the half-life at 3 µM was 3.06 h; the microsomal CLint at 3 µM stood at 25 µL/min/mg.

In the case of `CN(C)CCOc1nc2ccccc2c2oc(-c3ccc(C(F)(F)F)cc3)nc12` [KB-1518, N,N-dimethyl-2-((2-(4-(trifluoromethyl)phenyl)oxazolo[4,5-c]quinolin-4-yl)oxy)ethan-1-amine], the fraction remaining at 1 h, 3 µM stood at 57.2 ± 1.3%; the half-life at 3 µM is 1.24 h; the microsomal CLint at 3 µM came out at 216 µL/min/mg.

Broadly, the fraction remaining is what is left of the initial amount, in per cent.
